Experimental data published in US20100197584A1, “USE OF CURCUMIN TO BLOCK BRAIN TUMOR FORMATION IN MICE” (Research Foundations of the City University of- New York, priority 2007, published 2010).

Columns and labels:
[1] = system: B16F10 mouse melanoma cells; assay: Brain tumor formation (B16F10 cells injected into right front brain), tail vein curcumin; assay type: in vivo, C57BL mouse
Procedure: Generation of Tumors. The mice were given food and water ad libitum and subjected to 12 hour dark/12 hour light cycles. To generate brain tumors in mice, B16F10 mouse melanoma cells or GL261 mouse glioma cells (1000 cells in 5 μl PBS per C57BL mouse) were injected into the right front brain [coordinates: with respect to the Bregma (in mm) AP=2.5; L=−1.1; D=1.5] at the rate of 1 μl per minute using a stereotaxic set-up (KDS Model 310plus infusion-withdrawal syringe pump) (Paxinos, G., and Franklin, K. B. J., The mouse brain in stereotaxic coordinates. 2nd ed. 2001, New York: Academic Press). Before the cell injection, the mouse was anesthetized by injecting (sc) xylazine (10 mg/Kg) and ketamine (100 mg/Kg), the head was shaved, and then the head was immobilized on a Stoelting sterotaxic frame. The mouse was determined to be in deep anesthesia by checking for regular, relaxed respiration and the lack of response to tail/toe pinch before its head was immobilized. The head was cleaned with 70% ethanol and then, using a sterile scalpel, a midline incision was made and subcutaneous muscle and fascia retracted to expose the skull. A hole was made in the skull with a dental drill and the cells injected as described above using a Hamilton syringe fitted to the syringe pump. Under the described condition of anesthesia, the mouse remains unconscious for about 90 min. The total time taken for immobilization of the mouse, exposure of the skull, and injection was about 30 min. Thus, the total time required from the injection of anesthetics to the completion of surgery was less than one hour. After the injection, the hole in the skull was sealed with sterile bone wax and the skin and muscle placed back in place with appropriate 7-mm stainless steel clips (Reflex Skin closure system; Cellpoint Scientific). For wound healing, a topical antibiotic (Triple Antibiotic, containing Polymyxin B, Bacitracin, and Neomycin) was applied and for post-operative care the animal was kept in a warm blanket at 35-37° C. taking precautions to avoid thermal injury. On the first day after surgery (day 2), a sterile, 37° C. solution of physiologic saline was administered (IP) at the dose of 1 ml/100 g body weight. The animals were then caged individually with access to food and water and kept under close monitoring. The mice also received acetaminophen (Tylenol syrup) 1 mg/ml in drinking water daily until they returned to complete normalcy in terms of both behavior and appearance (body weight; reduced locomotion, vocalization, lack of grooming, wound scratching; and signs inflammation at the surgical site).
Curcumin Treatment. The control mice received, aseptically, the carrier (3% DMSO in 200 μl PBS) daily from the next day (day 2), through the tail vein after placing the mouse in a restraining cage without anesthetics. Other mice similarly received 667 μM curcumin in 200 μl of PBS containing 3% DMSO daily from the next day (day 2) for 18 days (through day 19) through the tail vein. Other mice received the same curcumin solution daily from day 4, day 6, day 8 or day 10. One mouse (designated Mouse 2) received a single dose of curcumin (5 μl of 667 μM solution) five minutes after injection of B16F10 cells into the brain, using the same stereotaxic set-up.
Monitoring and Sample Preparation. The effects of brain tumor on movement generally appeared in about two to three weeks. The mice were monitored for disorders in movement using an open field VIDEO monitoring set up (10 min per mouse). Blood was collected from the saphenous vein to test for markers for cancer and cell and organ damage. Additionally, MRI was performed on the mice to monitor the growth and progression of brain tumors. […]

[2] = system: B16F10 mouse melanoma cells; assay: Tumor formation in peripheral tissue (B16F10 cells injected into the neck); assay type: in vivo, C57BL mice
Procedure: Generation of Tumors. C57BL mice were given food and water ad libitum and subjected to 12 hour dark/12 hour light cycles. To generate tumors in the peripheral tissue, B16F10 mouse melanoma cells (10^4 cells in 10 μl PBS) were injected into the necks of male and female C57BL mice. Curcumin Treatment. The control mice received, aseptically, the carrier (3% DMSO in 200 μl PBS) daily through the tail vein after placing the mouse in a restraining cage without anesthetics. Other mice similarly received […] in 200 μl of PBS containing 3% DMSO daily through the tail vein.

[3] = cited from earlier work
[4] = system: GL261 (mouse glioma) cells; assay: Cell viability assay using MTT, GL261; assay type: cell-based; details: 25 μM and 50 μM, 48 h or 96 h, versus control cells (FIG. 6b)
Procedure: Cells. B16F10 (mouse melanoma), GL261 (mouse glioma), HOG (human oligodendroglioma), A549 (human lung cancer), and N18 (mouse neuroblastoma) cells were cultured separately in DMEM containing 10% (v/v) fetal bovine serum and 1% (v/v) penicillin-streptomycin (PS) and allowed to grow to 40% confluence in a 96-well plate.
Curcumin Treatment. Two hours before drug treatment, the medium in each well was replaced with 200 μl Neurobasal medium supplemented with 2% (v/v) B27 and 1% (v/v) PS (Drug-treatment Medium). A stock solution (40 mM) of curcumin was prepared in sterile dimethyl sulfoxide (DMSO) (Example 1). Through serial dilution of each stock solution in Drug-treatment Medium, the following concentrations were obtained: 20 μM and 50 μM (for caspase 3/7 assays) or 25 μM and 50 μM (for MTT assays). […] Additionally, the background absorbance was determined from parallel wells containing only the Drug-treatment Medium plus a particular concentration of the drug (no cells).
Cell Viability Assay Using MTT (3-(4,5-Dimethylthiazolyl-2)-2,5-Diphenyltetrazolium Bromide). […] Absorbance was measured at 570 nm using a 96-well multi scanner auto-reader with the extraction buffer used as blank. For curcumin samples, the absorbance obtained from the corresponding curcumin plus medium samples was subtracted.

COc1cc(/C=C/C(=O)CC(=O)/C=C/c2ccc(O)c(OC)c2)ccc1O [curcumin]
brain tumor formation and morbidity ([1]; B16F10 cells in right frontal lobe, 200 μl of 667 μM curcumin daily, tail vein, day 2 to day 19): blocked
tissue disintegration (hematoxylin and eosin staining of brain tissue) ([1]; curcumin-injected mice (FIG. 8B)): completely blocked
movement ([1]; daily curcumin injections, day 20): normal movement
movement and behavior ([1]; daily curcumin injections, days 21, 28, and 39): normal movement and behavior
tumors in the right frontal lobe ([1]; single dose (5 μl of 667 μM, into brain five minutes after B16F10 cells; Mouse 2)): Large tumors were observed
condition of mouse ([1]; single dose (5 μl of 667 μM, into brain five minutes after B16F10 cells; Mouse 2), day 21): hunched up and morbid
condition of mice after treatment ([2]; even after the curcumin injection had been discontinued for 18 days, carrier mice died in about a month): remained normal indefinitely
outward sign of tumor or lesion ([2]; male and female C57BL mice, B16F10 cells in neck, 667 curcumin in 200 μl PBS 3% DMSO daily, tail vein): no outward sign of tumor or lesion
solubility in water [3]: very low
cell viability (MTT) [4]: dramatic decrease
